{"source": "patent US20190209506A1", "about": "“METHODS OF REDUCING OR PREVENTING OXIDATION OF LDL OR LIPID MEMBRANES IN A SUBJECT IN NEED THEREOF” (Amarin Pharmaceuticals Ireland Limited, priority 2018, published 2019)", "type_in_all_cases": "biochemical", "key": {"human sdLDL [1]": {"system": "human sdLDL", "assay": "Copper-induced sdLDL oxidation, TBARS (Example 7)", "experimental": "An experiment to study the antioxidant effect of EPA in LDL and small dense LDL (“sdLDL”) was performed. LDL and sdLDL were isolated from the plasma of healthy volunteers by iodixanol density gradient ultracentrifugation, and adjusted to a final apolipoprotein concentration of 2 mg/mL. […] Lipid oxidation was initiated with 10 μM CuSO4 and monitored by the colorimetric detection of thiobarbituric acid reactive substances (TBARS) for 1 hr. Vitamin E was also incubated with sample aliquots as a positive control."}, "human sdLDL [2]": {"system": "human sdLDL", "assay": "Glucose-induced sdLDL oxidation, MDA/TBARS (Example 10)", "conditions": "glucose 200 mg/dL", "description": "Vitamin E (α-tocopherol) purchased from Sigma-Aldrich was prepared in ethanol at 1.0 mM (ε=3.06×10^4M^−1 cm^−1 at 294 nm) prior to experimental use. Test compounds were further diluted in ethanol or aqueous buffer as needed. Phosphate Buffered Saline (PBS) purchased from Sigma-Aldrich was prepared in double distilled water at 10 mM (138 mM NaCl, 2.7 mM KCl, pH 7.4). Glucose prepared in PBS was added to test samples to achieve a final concentration of 11.0 mM (200 mg/dL).\nLDL and sdLDL were isolated from the plasma of healthy volunteers by iodixanol density gradient ultracentrifugation and adjusted to a final apolipoprotein concentration of 10 mg/mL. […] Sample aliquots were incubated at 100° C. for 30 minutes and then assayed for the formation of thiobarbituric acid-reactive substances (TBARS), having a molar absorptivity (ε) value of 1.56×10^5 M^−1 cm^−1 at 532 nm and were derived principally from the reaction of thiobarbituric acid with malondialdehyde (MDA). Lipid oxidation was measured by the colorimetric detection of malondialdehyde (MDA), a marker of oxidative stress."}, "human sdLDL [3]": {"system": "human sdLDL", "assay": "Copper-induced sdLDL oxidation, TBARS after 2 hr (Example 6)", "description": "(§1) Venous blood was collected from healthy volunteers into vacutainer tubes containing sodium EDTA. Plasma was separated by centrifugation at 3000 g for 25 min at 4° C. and adjusted to a density of 1.020 g/mL with KBr. Triglyceride-rich lipoproteins (TGRL) and LDL fractions were then isolated by sequential centrifugation at 70,000 rpm at 4° C. in a Beckman LE-80 ultracentrifuge using a Beckman 50.4Ti rotor (Beckman Coulter, Inc., Fullerton, Calif.). The TGRL fraction (with a relative density of <1.020) was aspirated from the top of the centrifugate and discarded, leaving an LDL-enriched infranate (with a relative density of 1.020 to 1.063). The plasma LDL fraction was further fractionated into LDL1, LDL2, LDL3, and LDL4 (sdLDL) subfractions with relative densities of 1.020 to 1.035, 1.035 to 1.050, 1.050 to 1.063, and 1.063 to 1.075, respectively. The sdLDL subfraction was retained for additional experimentation. Plasma and lipoprotein fractions were maintained at 4° C. and protected from excessive exposure to light. Prior to oxidation experiments, EDTA was removed from the lipoprotein fraction using PD-10 desalting columns (GE Healthcare, Piscataway N.J.). After equilibration of the column with phosphate buffered saline (PBS), 2.5 mL of the lipoprotein fraction was loaded on the column and the flow-through discarded. The lipoprotein was then eluted with 3 mL of PBS. The LDL fractions were further diluted with PBS to obtain a 100 μg/mL apoB100 concentration.\nLDL and sdLDL subfractions (0.6 mL each) were incubated with either 10 μL vehicle (ethanol) or 10 μL drug stock solution for 30 min to 1 hr at 37° C. Oxidation was initiated by the addition of 10 μM CuSO4. After 2 hr, 100 μL aliquots were removed from each subfraction and combined with 1.0 mL thiobarbituric acid (0.5%), 10 μL trichloroacetic acid (5%), 10 μL BHT (5 mg/mL in methanol), and 10 μL EDTA (5 mM). […]. Sample TBARS concentrations were determined spectrophotometrically by measuring sample absorbances against a standard curve derived from the hydrolysis of 1,1,3,3-tetramethoxypropane."}, "human LDL [4]": {"system": "human LDL", "assay": "Copper-induced oxidation of unfractionated LDL, TBARS after 2 hr (Example 6)", "description": "as §1, with “Prior to oxidation experiments, EDTA was removed from the lipoprotein fraction using PD-10 desalting columns (GE Healthcare, Piscataway N.J.). After equilibration of the column with phosphate buffered saline (PBS), 2.5 mL of the lipoprotein fraction was loaded on the column and the flow-through discarded. The lipoprotein was then eluted with 3 mL of PBS. The LDL fractions were further diluted with PBS to obtain a 100 μg/mL apoB100 concentration.” left out\nLDL and sdLDL subfractions (0.6 mL each) were incubated with either 10 μL vehicle (ethanol) or 10 μL drug stock solution for 30 min to 1 hr at 37° C. […] Sample TBARS concentrations were determined spectrophotometrically by measuring sample absorbances against a standard curve derived from the hydrolysis of 1,1,3,3-tetramethoxypropane."}, "human LDL [5]": {"system": "human LDL", "assay": "Copper-induced oxidation of unfractionated LDL, TBARS (Example 7)", "conditions": "1 hour", "description": "An experiment to study the antioxidant effect of EPA in LDL and small dense LDL (“sdLDL”) was performed. LDL and sdLDL were isolated from the plasma of healthy volunteers by iodixanol density gradient ultracentrifugation, and adjusted to a final apolipoprotein concentration of 2 mg/mL. […] Vitamin E was also incubated with sample aliquots as a positive control."}}, "note": "pIC50: −log10 of the molar value. Where “and” joins values, the source holds several entries; their conditions need not be identical. Equal values may be shown once.", "data": [{"smiles": "Cc1c(C)c2c(c(C)c1O)CC[C@@](C)(CCC[C@H](C)CCC[C@H](C)CCCC(C)C)O2", "note": "[vitamin E, α-tocopherol, reference compound]", "values": [{"measurement": "effect on sdLDL oxidation compared to vehicle-treated controls", "setting": "human sdLDL [1]; 10 μM, 1 hour", "result": "no significant effect on sdLDL oxidation"}, {"measurement": "effect on glucose-induced sdLDL oxidation", "setting": "human sdLDL [2]; 10 μM, 1 hr", "result": "failed to inhibit sdLDL oxidation"}, {"measurement": "increase of sdLDL oxidation compared to glucose-treated controls", "setting": "human sdLDL [2]; 10 μM, 1 hr", "result": 63, "unit": "%"}, {"measurement": "reduction of TBARS levels compared to vehicle-treated controls", "setting": "human sdLDL [3]; 10.0 μM", "result": 26, "unit": "%"}, {"measurement": "effect on sdLDL oxidation", "setting": "human sdLDL [3]; concentrations 1.0 μM to 10.0 μM", "result": "did not inhibit sdLDL oxidation except at the highest concentration"}, {"measurement": "effect on LDL oxidation", "setting": "human LDL [4]; 1.0 μM to 10.0 μM, data not shown", "result": "did not inhibit LDL oxidation at any concentration"}, {"measurement": "effect on unfractionated LDL oxidation", "setting": "human LDL [5]; 10 μM", "result": "no significant effect on unfractionated LDL oxidation"}]}, {"smiles": "CC/C=C\\C/C=C\\C/C=C\\C/C=C\\C/C=C\\CCCC(=O)O", "note": "[EPA, cis-5,8,11,14,17-eicosapentaenoic acid]", "values": [{"measurement": "inhibition of sdLDL oxidation", "setting": "human sdLDL [1]; 1.0 μM, 1 hr, vs vehicle", "result": "19±8", "unit": "%"}, {"measurement": "inhibition of TBARS formation / sdLDL oxidation", "setting": "human sdLDL [1]; 10 μM, 1 hr, vs vehicle, 10 µM", "result": "93±2% and 92±8%"}, {"measurement": "effect on sdLDL oxidation compared to vehicle or DHA", "setting": "human sdLDL [1]; 10.0 μM, after 4 hours", "result": "significantly inhibited sdLDL oxidation"}, {"measurement": "pIC50", "setting": "human sdLDL [1]; 1 hr", "result": "~5.70"}, {"measurement": "inhibition of sdLDL oxidation compared to vehicle controls", "setting": "human sdLDL [2]; 10.0 μM", "result": 94, "unit": "%"}, {"measurement": "sdLDL oxidation (formation of MDA)", "setting": "human sdLDL [2]; 10.0 μM", "result": "0.2 ± 0.1", "unit": "µM"}, {"measurement": "pIC50", "setting": "human sdLDL [2]", "result": "> 6.00"}, {"measurement": "reduction of TBARS levels compared to vehicle-treated controls", "setting": "human sdLDL [3]; 10.0 μM", "result": 57, "unit": "%"}, {"measurement": "reduction of TBARS levels compared to vehicle-treated controls", "setting": "human sdLDL [3]; lowest dose tested (1.0)", "result": 13, "unit": "%"}, {"measurement": "reduction of TBARS levels", "setting": "human LDL [4]; highest concentration tested (10.0), unfractionated LDL", "result": 17, "unit": "%"}, {"measurement": "inhibition of TBARS formation compared to vehicle-treated control", "setting": "human LDL [5]; highest treatment concentration (10)", "result": "> 90", "unit": "%"}]}]}
